Test results as given in patent publication US20070111284A1, “Galactosylation of Recombinant Glycoproteins” (Genentech, Inc., priority 2000, published 2007).

Experiments:
[1] = tested on: CHO cells; experiment: Intracellular UTP and UDP-galactose in CHO cells fed uridine or galactose; format: cell-based, Chinese hamster
Method: CHO cells were incubated under standard tissue culture technique in the presence and absence of 1 to 20 mM uridine for 18 hours and tested for UTP concentrations using a method similar to Ryll and Wagner. Quantified data from the 0, 1, 2, 5, 10 and 20 mM uridine cultures were plotted as a function of normalized intracellular UTP concentrations. Alternatively, CHO Cells were cultured in the presence of 0.2 mM uridine or 11 mM galactose and tested for UTP concentrations using the method of Ryll and Wagner.

[2] = tested on: CAD mRNA; experiment: CAD mRNA expression by RNase protection assay in PALA selected cells; format: cell-based; settings: TRY cells selected under 2 mM PALA; FIG. 4
Method: CAD expression was measured on PALA resistant cells using a RNase protection assay similar to the method described in Mahler and McGuire. Mahler and McGuire (1990), J. Clin. Invest., 86: 1641-1648. In particular, TRY cells were selected under 2 mM PALA and CAD mRNA expression measured using a RNase protection assay.

[3] = tested on: CHO cells; experiment: Intracellular nucleotides and nucleotide sugars (HPLC) in PALA resistant CHO cells; format: cell-based, Chinese hamster; settings: FIG. 6
Method: CHO cells were treated in 5 mM PALA, cell extracts were prepared and nucleotides measured using a method similar to Ryll and Wagner. Ryll and Wagner (1991) J. Chromatography, 570:77-88. The experiment was performed over a time course of 10 to 90 days and data quantified and plotted as UTP content of PALA resistant cells relative to control cells.
Further, PALA resistant CHO DP12 cells expressing TNFR-IgG were seeded at 4×10^6 cells per ml in spinner flask cultures and incubated at 31° C. and 6 mM butyrate for 6 days. The cell culture supernatant was harvested and TNFR-IgG recovered by a method of protein A immunoaffinity chromatography as is well known in the art. N-linked glycans were analyzed by MALDI mass spectrometry using the method generally described by Papac et al., (1996) Anal. Chem., 68:3215-3223. Sialic acid content of the TNFR-IgG was determined using were analyzed using the method generally described by Anumula, (1995) Anal. Biochem., 230, 24-30.

[4] = tested on: CPS II; experiment: CPS II activity in PALA resistant CHO cells; format: cell-based, Chinese hamster; settings: CHO B cell line, selected with 3 mM PALA; FIG. 3
Method: CHO DP12 and CHO DG44 parental cell lines and CHO DP12 expressing TNFR-IgG and anti-CD11a were cultivated with and without P-phosphonacytyl-L-aspartate (PALA). As shown schematically in FIG. 2, each cell line was plated at 10% confluency in 10 cm petri dishes using standard tissue culture techniques. Cells were cultured in serum containing medium having 0.1 mM PALA. The culture medium was changed weekly. Surviving clones were pooled and sub-cultivated in increasing concentrations of PALA until the target PALA concentration was reached, i.e., 2-10 mM PALA. After selection for the PALA phenotype (see below), cells were either passed into a PALA containing medium or to a PALA free medium and further cultivated in suspension spinner flasks. Spinner flask cell populations were sub-cultivated every 4-7 days. Cells selected in the presence of PALA are referred to as PALA-resistant cells, cells cultivated in the same manner as above but not treated with PALA will be referred to as control cells.
CHO cells treated with 3 mM PALA were analyzed for CPS II activity, an indicator of overall CAD activity, using the method generally described in Mori and Tatibana. […] Two PALA resistant CHO sub-cultures were analyzed, CHO-A and CHO-B, to ensure that results were uniform to the PALA resistant phenotype and not particular to a sub-population of treated cells.

[5] = tested on: CHO cell line that produces aCD20; experiment: Galactose content of aCD20 MAb from CHO cells cultured with uridine (capillary electrophoresis); format: cell-based, Chinese hamster; settings: 0.5 to 1.0 mM uridine for 7 days; FIG. 10
Method: A CHO cell line that produces a recombinant glycoprotein, monoclonal antibody (MAb) aCD20, was cultured in the presence and absence of 0.5 to 1.0 mM uridine for a period of 7 days. Secreted aCD20 MAb was purified by immunoaffinity using the method of Ma & Nashabeh. Ma & Mashabeh (1999) Analytical Chemistry 71(22):5185-92. Purified aCD20 was tested for galactose content using the capillary electrophoresis method of Ma & Nashabeh and plotted as a percent galactose content.

[6] = 0.2 mM uridine or 11 mM galactose, FIG. 8

| Compound | intracellular UTP levels [1, 6] | intracellular UDP-galactose levels ([1]; 11 mM galactose, FIG. 8) | increase in CAD mRNA as compared to control cells [2] | increase in UTP content as compared to control cells ([3]; CHO cells treated in 5 mM PALA, time course of 10 to 90 days) | increase in UDP-galactose content as compared to control cells ([3]; PALA resistant CHO cells, period of at least 90 days) | increase in CPS II activity as compared to control CHO cells [4] | galactose content of aCD20 MAb versus non-uridine treated control cells [5] | intracellular UTP levels ([1]; 1 to 20 mM uridine for 18 hours, FIG. 7) |
| --- | --- | --- | --- | --- | --- | --- | --- | --- |
| O=C[C@H](O)[C@@H](O)[C@@H](O)[C@H](O)CO [galactose] | does not increase UTP levels | does increase UDP-galactose levels |  |  |  |  |  |  |
| O=C(O)C[C@H](NC(=O)CP(=O)(O)O)C(=O)O [PALA, N-phosphonacetyl-L-aspartate] |  |  | two | 200-350% | 200-350% | twenty |  |  |
| O=c1ccn([C@@H]2O[C@H](CO)[C@@H](O)[C@H]2O)c(=O)[nH]1 [uridine] | dramatic increase in UTP levels |  |  |  |  |  | much higher galactose content | increases UTP levels within the cell in a dose dependent manner |
